Results on 18 molecules are retold here after US20240208997A1, “CYCLIC BENZIMIDAZOLE DERIVATIVES AS CGAS INHIBITORS” (Boehringer Ingelheim International GmbH, priority 2022, published 2024).

In test [1] the test system is IFN induction in dsDNA-stimulated human whole blood. The test can be described thus: Human whole blood assay (hWB IC50), dsDNA stimulated, IFNα2α production. Particulars: Table 1. The class given is cell-based. How it is done: 6.3 Method: Human Whole Blood Assay (Human WB IC50)
For the detection of cellular cGAS activity human whole blood was stimulated by transfection with double stranded DNA. Pathway activity was monitored by measuring the IFNα2α production.
Compounds were delivered as 10 mM DMSO solution and serially diluted and transferred to the 96-well cell culture plate (Corning #3595), prefilled with 20 μl OptiMEM (Gibco, #11058-021) in each well, using an Echo acoustic dispenser. Typically, 8 concentrations were used with the highest concentration at 10 μM in the final assay volume followed by ^˜1:5 dilution steps. DMSO concentration was set to 0.1% in the final assay volume. The 96-well assay plate contained 10 test compounds, and DMSO in control wells.
Collection of human whole blood from 3 or more healthy donors (male or female, no medication for 7 days except contraceptive and thyroxine) as Na-Citrate blood (e.g. 3.8% in Monovettes from Sarstedt) was conducted in parallel. Whole blood was kept at room temperature for a maximum of 3 hours after collection until use in the assay. 160 μl of the whole blood samples was transferred to each well of the 96-well assay plates filled with compound/OptiMEM. All assay plates were prepared as duplicates with blood from different donors. Blood plates were kept at room temperature for 60 minutes and continuous shaking with 450 rpm, covered with the lid, but not sealed.
20 μl OptiMEM and 9.6:1 Fugene was added to all low control wells.
After covering assay plates with aera seals and the lid, blood plates were kept at room temperature for 30 minutes and continuous shaking with 450 rpm, followed by an overnight incubation of 22 h at 37° C. in the incubator, without shaking.
For the detection of IFNα-2α in human plasma, the biotinylated capture antibody (Antibody set IFNA2, Meso Scale Diagnostics #B21VH-3, including coating and capture antibody) was diluted 1:17.5 in Diluent 100 (Meso Scale Diagnostics #R50AA-4), according to the manufacturer's directions. U-Plex MSD GOLD 96-well Small Spot Strepavidin SECTOR Plates (Meso Scale Diagnostics #L45SA-5) were coated with 25 μl diluted capture antibody. Coated plates were incubated for 60 min at room temperature under continuous shaking at 700 rpm. MSD IFNα-2α plates were washed three times with 150 μl wash buffer (1× HBSS, 0.05% Tween).
After blocking the plates with 100 μl block solution/well (1× HBSS with 0.2% Tween, 2% BSA) for 60 min at room temperature and continuous shaking at 700 rpm, plates were emptied as dry as possible by dumping just before continuing with the human plasma.
Whole Blood assay plates were centrifuged at 1600 rpm for 10 minutes. 25 μl of supernatant was transferred with a pipetting robot from each whole blood plate to the corresponding IFNα-2α plate. Plates were sealed with microplate seals and kept at room temperature again under continuous shaking at 700 rpm for two hours.
Next MSD IFNα-2α plates were washed three times with 150 μl wash buffer (1× HBSS, 0.05% Tween), before adding 25 μl MSD SULFO-TAG IFNα-2α Antibody solution (1:100 diluted in Diluent 3 (Meso Scale Diagnostics #R50AP-2) to each well of the plates.
Afterwards plates were sealed with microplate seals and kept at room temperature again under continuous shaking at 700 rpm for two hours. Finally, MSD IFNα-2α plates were washed three times with 150 μl wash buffer (1× HBSS, 0.05% Tween). 150 μl 2× Read buffer was added to each well and plates were immediately measured with the MSD Sector S600 Reader using the vendor barcode.
(§1) Data Evaluation and Calculation:
For data evaluation and calculation, % control calculation of each well was based on the mean of high (DNA stimulated control) and mean of low (unstimulated control) controls by using the following formula:
[counts(sample)−counts(low))/(counts(high)−counts(low))]*100
The IC50-values were calculated using the standard 4 parameter logistic regression formula. […]

Test [2] has as its system IFN induction in cGAMP-stimulated THP1 cells. The test can be described thus: cGAMP stimulated counter cell assay in THP1-Dual cells (THP1(cGAMP) IC50). Type of test: cell-based, human. Particulars: Table 1; for IC50: Homo sapiens, THP-1, counter assay, 10 μM cGAMP stimulation, read-out: THP(cGAMP) IC50; for Ratio THP(cGAMP) IC50/THP(vir) IC50: selectivity for cGAS-inhibition.
Text: 6.2 Method: Human cGAS Cell Assay and cGAMP Stimulated Counter Cell Assay (THP1(vir) IC50 and THP1(cGAMP) IC50)
For the counter assay, cells were stimulated by cGAMP (SigmaAldrich #SML1232) to activate the identical pathway independent and directly downstream of cGAS (measurement of THP1(cGAMP) IC50).
Pathway activity was monitored by measuring the Lucia luciferase activity induced by either DNA stimulated cGAS enzyme activity (measurement of THP1(vir) IC50) or by cGAMP directly (measurement of THP1(cGAMP) IC50, counter assay).
Compounds were delivered in 10 mM DMSO solution, serially diluted and transferred to the 384 well assay plate (Greiner #781201) using an Echo acoustic dispenser. Typically, 8 concentrations were used with the highest concentration at 10 μM in the final assay volume followed by ^˜1:5 dilution steps. DMSO concentration was set to 1% in the final assay volume. The 384 well assay plate contained […] (column 1-22), and DMSO in column 23 and 24.
Cells, cultivated according to manufacturer conditions, were harvested by centrifugation at 300 g/10 min and were then resuspended and diluted to 1.66E5 cells/ml in fresh cell culture medium (RPMI 1640 (Gibco #A10491-01), 10% FCS (Gibco #10500), 1× GlutaMax (Gibco #35050-061), 1× Pen/Strep solution (Gibco #15140-122), 100 μg/ml Normocin (InvivoGen #ant-nr), 100 μg/ml Zeocin (InvivoGen #ant-zn), 10 μg/ml Blasticidin S (Life Technologies #A11139-03)). The baculovirus solution was then added 1:200 (have varied according to virus batch) to the cells (measurement of THP1(vir) IC50).
30 μL of the cell/virus-mix were added to each well of the compound plate from column 1-23 via MultiDrop Combi dispenser (5000 cells/well). In column 24, 30 μl/5000 cells/well without virus were added as a low control.
The plates were then incubated for 18 h at 37° C. in a humidified incubator.
Following that, 15 μL of QuantiLuc detection reagent (InvivoGen #rep-qlcg5) were added to each well using a MultiDrop Combi. Measurement was done immediately after the addition using an EnVision reader (US-luminescence read-mode).
as §1
For data evaluation and calculation, the measurement of the low control was set as 0% control and the measurement of the high control was set as 100% control. The IC50 values were calculated using the standard 4 parameter logistic regression formula. Calculation: [y=(a−d)/(1+(x/c)^b)+d], a=low value, d=high value; x=conc M; c=IC50 M; b=slope

For orientation: IC50 means the midpoint of a concentration-inhibition curve.

For the molecule `C[C@H]1CN2CC[C@@H]1n1c(nc3ccccc31)O[C@H]1C[C@@H](C(=O)O)N(C1)c1nc(nc3c1oc1ccccc13)CCOCCOC2=O` (mixture of isomers) [Example 12.01], the figures for the IC50 in test [1] and in test [2] were 225 nM and above 10000 nM, respectively. Further, the “Ratio THP(cGAMP) IC50/THP(vir) IC50” value in test [2] is given as above 42.

Consider `C[C@H]1CN2CC[C@@H]1n1c(nc3ccccc31)O[C@H]1C[C@@H](C(=O)O)N(C1)c1nc(nc3c1oc1ccccc13)CCCCCCC2=O` (racemic) [Example 1.24], for which the IC50 in test [1] was determined as 86 nM. In test [2], the IC50 was determined as 11000 nM and the “Ratio THP(cGAMP) IC50/THP(vir) IC50” value came to 65.

For `C[C@H]1CN2CC[C@@H]1n1c(nc3cccc(Cl)c31)O[C@H]1C[C@@H](C(=O)O)N(C1)c1nc(nc3c1oc1ccccc13)CC(=O)NCCCC2=O` (racemic) [Example 2.01, (12S,14S)-4-chloro-37-methyl-29,34-dioxo-11,18-dioxa-2,9,15,26,30,35,40-heptaazaoctacyclo[33.2.2.1^12,15.1^16,27.0^2,10.0^3,8.0^17,25.0^19,24]hentetraconta-3,5,7,9,16(40),17(25),19(24),20,22,26-decaene-14-carboxylic acid], in test [1], the IC50 worked out at 35 nM. In test [2], the IC50 was above 10000 nM and the “Ratio THP(cGAMP) IC50/THP(vir) IC50” value is above 948.

Consider `C[C@@H]1CN2CC[C@H]1n1c(nc3cc(Cl)ccc31)O[C@H]1C[C@@H](C(=O)O)N(C1)c1nc(nc3c1oc1ccccc13)CCOCCCC2=O` [Example 1.01], for which the figures for the IC50 in test [1] and in test [2] were 87 nM and above 10000 nM, respectively. Moreover, the “Ratio THP(cGAMP) IC50/THP(vir) IC50” value in test [2] is recorded as above 253.

Take `C[C@H]1CN2CC[C@@H]1n1c(nc3cc(Cl)ccc31)O[C@H]1C[C@@H](C(=O)O)N(C1)c1nc(nc3c1oc1ccccc13)CCOCCCC2=O` [Example 1.02]: in test [1], half-maximal inhibition (IC50) required 5 nM. Further, in test [2], the IC50 was above 10000 nM and the “Ratio THP(cGAMP) IC50/THP(vir) IC50” value is above 3557.

On to `O=C(O)[C@@H]1C[C@H]2CN1c1nc(nc3c1oc1ccccc13)CCOCCCC(=O)N1CCC(CC1)n1c(nc3cc(F)ccc31)O2` [Example 1.03], for which the midpoint of inhibition in test [1], the IC50, lay at 36 nM. Further, in test [2], the IC50 is above 10000 nM and the “Ratio THP(cGAMP) IC50/THP(vir) IC50” value is listed as above 90.

As for `O=C(O)[C@@H]1C[C@H]2CN1c1nc(nc3c1oc1ccccc13)CCOCCCC(=O)N1CCC(CC1)n1c(nc3ccc(F)cc31)O2` [Example 1.04], the IC50 is 44 nM in test [1] and above 10000 nM in test [2]. Further, the “Ratio THP(cGAMP) IC50/THP(vir) IC50” value in test [2] is on record as above 229.

Take `C[C@H]1CN2CC[C@@H]1n1c(nc3ccccc31)O[C@H]1C[C@@H](C(=O)O)N(C1)c1nc(nc3c1oc1ccccc13)CCOCCCC2=O` [Example 1.05]: the midpoint of inhibition in test [1], the IC50, lay at 5 nM. Further, in test [2], the IC50 was above 10000 nM and the “Ratio THP(cGAMP) IC50/THP(vir) IC50” value is above 3448.

With `C[C@H]1CN2CC[C@@H]1n1c(nc3ccc(Cl)cc31)O[C@H]1C[C@@H](C(=O)O)N(C1)c1nc(nc3c1oc1ccccc13)CCOCCCC2=O` [Example 1.06], in test [1], the IC50 came to 15 nM. In test [2], the IC50 is above 10000 nM and the “Ratio THP(cGAMP) IC50/THP(vir) IC50” value is reported as above 2417.

In the case of `C[C@H]1CN2CC[C@@H]1n1c(nc3ccccc31)O[C@H]1C[C@@H](C(=O)O)N(C1)c1nc(nc3c1oc1cc(Cl)ccc13)CCOCCCC2=O` [Example 1.07], the IC50 in test [1] is 13 nM; in test [2] it was above 10000 nM. In addition, the “Ratio THP(cGAMP) IC50/THP(vir) IC50” value in test [2] is above 1541.

`C[C@H]1CN2CC[C@@H]1n1c(nc3cc(Cl)ccc31)O[C@H]1C[C@@H](C(=O)O)N(C1)c1nc(nc3c1oc1cc(Cl)ccc13)CCOCCCC2=O` [Example 1.08]: it took 17 nM to reach half-maximal inhibition in test [1] (IC50). Besides, in test [2], the IC50 was found to be 9500 nM and the “Ratio THP(cGAMP) IC50/THP(vir) IC50” value was determined as 3928.

The molecule `C[C@H]1CN2CC[C@@H]1n1c(nc3cc(Cl)ccc31)O[C@H]1C[C@@H](C(=O)O)N(C1)c1nc(nc3c1oc1cc(F)ccc13)CCCCOCC2=O` [Example 1.09] registered an IC50 in test [1] of 2 nM. Also, in test [2], the IC50 is above 10000 nM and the “Ratio THP(cGAMP) IC50/THP(vir) IC50” value is listed as 4305.

`C[C@H]1CN2CC[C@@H]1n1c(nc3ccc(Cl)cc31)O[C@H]1C[C@@H](C(=O)O)N(C1)c1nc(nc3c1oc1ccccc13)COCCCCC2=O` [Example 1.10] registered an IC50 in test [1] of 12 nM. For the same molecule, in test [2], the IC50 was above 10000 nM and the “Ratio THP(cGAMP) IC50/THP(vir) IC50” value was above 790.

Molecule `C[C@H]1CN2CC[C@@H]1n1c(nc3cc(Cl)ccc31)O[C@H]1C[C@@H](C(=O)O)N(C1)c1nc(nc3c1oc1ccccc13)COCCOCC2=O` [Example 1.11] registered an IC50 in test [1] of 3 nM. In test [2], the IC50 is at least 10000 nM and the “Ratio THP(cGAMP) IC50/THP(vir) IC50” value is above 2907.

As to `C[C@H]1CN2CC[C@@H]1n1c(nc3cc(Cl)ccc31)O[C@H]1C[C@@H](C(=O)O)N(C1)c1nc(nc3c1oc1ccccc13)C(F)(F)CCCCCC2=O` [Example 1.12], it took 5 nM to reach half-maximal inhibition in test [1] (IC50). Besides, in test [2], the IC50 was determined as 3600 nM and the “Ratio THP(cGAMP) IC50/THP(vir) IC50” value was found to be 1620.

Molecule `C[C@H]1CN2CC[C@@H]1n1c(nc3ccc(Cl)cc31)O[C@H]1C[C@@H](C(=O)O)N(C1)c1nc(nc3c1oc1ccccc13)C(F)(F)CCCCCC2=O` [Example 1.13] registered an IC50 in test [1] of 15 nM. For the same molecule, in test [2], the IC50 was 11000 nM and the “Ratio THP(cGAMP) IC50/THP(vir) IC50” value is on record as 2251.

`C[C@H]1CN2CC[C@@H]1n1c(nc3ccccc31)O[C@H]1C[C@@H](C(=O)O)N(C1)c1nc(nc3c1oc1cc(F)ccc13)C(F)(F)CCCCCC2=O` [Example 1.14]: the results for the IC50 in test [1] and in test [2] were 4 nM and 18000 nM, respectively. Also, the “Ratio THP(cGAMP) IC50/THP(vir) IC50” value in test [2] is reported as 11920.

As for `O=C(O)[C@@H]1C[C@H]2CN1c1nc(nc3c1oc1ccccc13)CCCOCC(=O)N1CCC(CC1)n1c(nc3ccccc31)O2` [Example 9.01], the IC50 in test [1] was 41 nM.
